According to US20260374773A1, “MULTI-CYCLIC IRAK AND FLT3 INHIBITING COMPOUNDS AND USES THEREOF” (CHILDREN'S HOSPITAL MEDICAL CENTER, priority 2022, published 2026):

biological target: T1, FLT3 K663Q (Homo sapiens, UniProt P36888, K663Q); test: DiscoverX KINOMEscan active site-directed competition binding, FLT3 K663Q; details: Table 13; no ATP
T1 sequence (P36888 27-993 K663Q): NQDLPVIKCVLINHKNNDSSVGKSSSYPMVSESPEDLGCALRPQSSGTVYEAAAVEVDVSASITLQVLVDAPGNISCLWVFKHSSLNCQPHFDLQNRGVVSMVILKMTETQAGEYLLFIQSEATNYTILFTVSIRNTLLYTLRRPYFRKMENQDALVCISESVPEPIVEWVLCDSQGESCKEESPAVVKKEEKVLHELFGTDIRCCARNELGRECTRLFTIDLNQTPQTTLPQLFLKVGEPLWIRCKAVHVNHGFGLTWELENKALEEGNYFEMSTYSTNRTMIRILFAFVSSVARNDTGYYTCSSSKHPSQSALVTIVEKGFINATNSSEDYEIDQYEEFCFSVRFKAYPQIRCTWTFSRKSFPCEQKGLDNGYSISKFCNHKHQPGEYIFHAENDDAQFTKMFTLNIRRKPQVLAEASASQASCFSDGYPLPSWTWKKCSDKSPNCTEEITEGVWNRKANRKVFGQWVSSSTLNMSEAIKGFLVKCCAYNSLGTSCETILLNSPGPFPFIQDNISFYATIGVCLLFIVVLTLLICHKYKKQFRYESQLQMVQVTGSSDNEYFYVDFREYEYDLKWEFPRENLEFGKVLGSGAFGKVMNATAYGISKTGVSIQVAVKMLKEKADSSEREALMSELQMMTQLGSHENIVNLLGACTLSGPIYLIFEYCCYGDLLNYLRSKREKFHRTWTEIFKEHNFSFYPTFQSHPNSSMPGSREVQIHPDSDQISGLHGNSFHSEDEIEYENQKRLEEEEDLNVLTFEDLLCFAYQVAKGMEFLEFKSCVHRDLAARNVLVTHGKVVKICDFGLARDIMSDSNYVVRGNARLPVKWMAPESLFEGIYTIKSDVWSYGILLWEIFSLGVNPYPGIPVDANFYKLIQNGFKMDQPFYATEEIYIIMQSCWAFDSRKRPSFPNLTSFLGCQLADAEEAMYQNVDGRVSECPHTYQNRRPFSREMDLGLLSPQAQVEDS
Excerpt: (§1) Kinase binding data were obtained for various exemplary compounds prepared according to Examples 1-8 using the DiscoverX KINOMEscan® active site-directed competition binding site-directed assay protocol described below. […] As a result, the data report thermodynamic interaction affinities (Kd values), rather than IC50 values that are dependent on ATP concentrations. The assay uses a DNA-tagged version of the protein kinase, and an immobilized ligand bound to a solid support. Compounds that directly or indirectly prevent kinase binding to the immobilized ligand reduce the amount of kinase captured on the solid support, which is detected using an ultra-sensitive qPCR method. Affinity constants reported from the assay have been reported to be independent of the immobilized ligand used that is coupled to the solid support (See supplemental information in Fabian, M. A. et. al., (2005) Nat. Biotechnol. 23, 329-336; Wodicka, L. M. et. al., (2010) Chem. Biol. 17, 1241-1249.)
Kinase-tagged T7 phage strains were prepared in an E. coli host derived from the BL21 strain. E. coli were grown to log-phase and infected with T7 phage and incubated with shaking at 32 °C until lysis. The lysates were centrifuged and filtered to remove cell debris. The remaining kinases were produced in HEK-293 cells and subsequently tagged with DNA for qPCR detection. Streptavidin-coated magnetic beads were treated with biotinylated small molecule ligands for 30 minutes at room temperature to generate affinity resins for kinase assays. The liganded beads were blocked with excess biotin and washed with blocking buffer (SeaBlock (Pierce), 1% BSA, 0.05% Tween 20, 1 mM DTT) to remove unbound ligand and to reduce non-specific binding. […] Test compounds were prepared as 111x stocks in 100% DMSO. Kds were determined using an 11-point 3-fold compound dilution series with three DMSO control points. All compounds for Kd measurements are distributed by acoustic transfer (non-contact dispensing) in 100% DMSO. The compounds were then diluted directly into the assays such that the final concentration of DMSO was 0.9%. All reactions were performed in polypropylene 384-well plates. Each was a final volume of 0.02 mL. The assay plates were incubated at room temperature with shaking for 1 hour and the affinity beads were washed with wash buffer (1×PBS, 0.05% Tween 20). The beads were then re-suspended in elution buffer (1×PBS, 0.05% Tween 20, 0.5 μM nonbiotinylated affinity ligand) and incubated at room temperature with shaking for 30 minutes. The kinase concentration in the eluates was measured by qPCR. Binding constants (Kds) were calculated with a standard dose-response curve using the Hill equation. The Hill Slope was set to −1. Curves were fitted using a non-linear least square fit with the Levenberg-Marquardt algorithm.
as §1, with “9-12” for “1-8”
Kinase-tagged T7 phage strains were prepared in an E. coli host derived from the BL21 strain. […]

Going from `COc1cn2ncc(-c3nc(N[C@H]4CNCC[C@@H]4F)c(C#N)cc3F)c2nc1C1CC1` [Compound 7, 6-(5-cyclopropyl-6-methoxypyrazolo[1,5-a]pyrimidin-3-yl)-5-fluoro-2-(((3S,4S)-4-fluoropiperidin-3-yl)amino)nicotinonitrile] to `COc1cn2ncc(-c3nc(N[C@H]4CNCC[C@@H]4F)c(C#N)cc3F)c2nc1C(C)(C)O` [Compound 10, 5-fluoro-2-(((3S,4S)-4-fluoropiperidin-3-yl)amino)-6-(5-(2-hydroxypropan-2-yl)-6-methoxypyrazolo[1,5-a]pyrimidin-3-yl)nicotinonitrile], the Kd rises from < 170 pM to 1100 pM. The first binds more tightly here.

For `COc1cn2ncc(-c3nc(N[C@H]4CNCC[C@@H]4F)c(F)cc3F)c2nc1C(C)(C)O` [Compound 13, 2-(3-(3,5-difluoro-6-(((3S,4S)-4-fluoropiperidin-3-yl)amino)pyridin-2-yl)-6-methoxypyrazolo[1,5-a]pyrimidin-5-yl)propan-2-ol], the Kd was 1600 pM.

same assay, conditions: Table 19; no ATP

Compared with `COc1cn2ncc(-c3cncc(N[C@H]4CNCC[C@@H]4F)n3)c2nc1C1CC1` [Compound 12a, 6-(5-cyclopropyl-6-methoxypyrazolo[1,5-a]pyrimidin-3-yl)-N-((3S,4S)-4-fluoropiperidin-3-yl)pyrazin-2-amine], `COc1cn2ncc(-c3ccnc(N[C@H]4CNCC[C@@H]4F)n3)c2nc1C1CC1` [Compound 7a, 4-(5-cyclopropyl-6-methoxypyrazolo[1,5-a]pyrimidin-3-yl)-N-((3S,4S)-4-fluoropiperidin-3-yl)pyrimidin-2-amine] is 1.9-fold higher in Kd: 440 pM for the first, 820 pM for the second.

Compared with `COc1cn2ncc(-c3nc(N[C@@H]4CCCNC4)ncc3F)c2nc1C1CC1` [Compound 14a, (R)-4-(5-cyclopropyl-6-methoxypyrazolo[1,5-a]pyrimidin-3-yl)-5-fluoro-N-(piperidin-3-yl)pyrimidin-2-amine], `COc1cn2ncc(-c3nc(N[C@H]4CNCC[C@@H]4F)ncc3F)c2nc1C1CC1` [Compound 15a, 4-(5-cyclopropyl-6-methoxypyrazolo[1,5-a]pyrimidin-3-yl)-5-fluoro-N-((3S,4S)-4-fluoropiperidin-3-yl)pyrimidin-2-amine] is higher in Kd: < 170 pM for the first, 210 pM for the second.

`COc1cn2ncc(-c3nc(N[C@H]4CNCC[C@@H]4F)ncc3F)c2nc1C(C)(C)O` [Compound 6a, 2-(3-(5-fluoro-2-(((3S,4S)-4-fluoropiperidin-3-yl)amino)pyrimidin-4-yl)-6-methoxypyrazolo[1,5-a]pyrimidin-5-yl)propan-2-ol] showed a Kd of 2000 pM.
